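Cells were grown in 96-well plates and exposed to each compound for 48 hours at five concentrations; endpoints were interpolated linearly between bracketing concentrations, or set to the highest concentration if not reached. GI50 is the concentration that inhibits growth by half. TGI marks complete inhibition of growth.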
What was measured:
Assay in all cases: growth of human tumour cells (NCI), 48 h
[1] = test system: UACC-62 melanoma
[2] = test system: OVCAR-5 ovarian
[3] = test system: SK-MEL-28 melanoma
[4] = test system: SNB-75 CNS
[5] = test system: OVCAR-4 ovarian
[6] = test system: EKVX NSCLC
[7] = test system: NCI-H460 lung
[8] = test system: ACHN renal
[9] = test system: A498 renal
[10] = test system: PC-3 prostate
[11] = test system: COLO 205 colon
[12] = test system: SK-OV-3 ovarian
[13] = test system: CAKI-1 renal
[14] = test system: HCT-116 colon
[15] = test system: SF-268 CNS
[16] = test system: T-47D breast
[17] = test system: UO-31 renal
[18] = test system: NCI-H23 lung
[19] = test system: NCI-H522 lung
[20] = test system: MCF7 breast
[21] = test system: OVCAR-8 ovarian
[22] = test system: SK-MEL-2 melanoma
[23] = test system: SK-MEL-5 melanoma
[24] = test system: DU-145 prostate
[25] = test system: CCRF-CEM leukemia
[26] = test system: LOX IMVI melanoma
[27] = test system: A549 NSCLC
[28] = test system: HOP-92 NSCLC
[29] = test system: M14 melanoma

CCOc1ccc(NC2=C(Cl)C(=O)c3nc(C)ccc3C2=O)cc1
GI50 [1]: 1810 nM
TGI [1]: 3290 nM
GI50 [2]: 1920 nM
TGI [2]: 3460 nM
GI50 [3]: 1730 nM
TGI [3]: 3140 nM
GI50 [4]: 1460 nM
TGI [4]: 2790 nM
GI50 [5]: 1130 nM
TGI [5]: 2370 nM
GI50 [6]: 1610 nM
TGI [6]: 3120 nM
GI50 [7]: 3080 nM
TGI [7]: 10400 nM
GI50 [8]: 1570 nM
TGI [8]: 2920 nM
GI50 [9]: 1560 nM
TGI [9]: 5520 nM
GI50 [10]: 1300 nM
TGI [10]: 2770 nM
GI50 [11]: 1860 nM
TGI [11]: 3640 nM
GI50 [12]: 11000 nM
TGI [12]: 30100 nM
GI50 [13]: 1600 nM
TGI [13]: 2970 nM
GI50 [14]: 1320 nM
TGI [14]: 2790 nM
GI50 [15]: 1550 nM
TGI [15]: 3090 nM
GI50 [16]: 1010 nM
TGI [16]: 3910 nM
GI50 [17]: 1430 nM
TGI [17]: 2750 nM
GI50 [18]: 1350 nM
TGI [18]: 2850 nM
GI50 [19]: 1750 nM
TGI [19]: 3220 nM
GI50 [20]: 1540 nM
TGI [20]: 3820 nM
GI50 [21]: 1570 nM
TGI [21]: 3010 nM
GI50 [22]: 1630 nM
TGI [22]: 3030 nM
GI50 [23]: 1720 nM
TGI [23]: 3110 nM
GI50 [24]: 1720 nM
TGI [24]: 3130 nM
GI50 [25]: 2110 nM
TGI [25]: > 100000 nM
GI50 [26]: 1060 nM
TGI [26]: 2330 nM
GI50 [27]: 2090 nM
TGI [27]: 4640 nM
GI50 [28]: 2020 nM
TGI [28]: 3510 nM
GI50 [29]: 1680 nM
